Measurements published in EP0261693A1, “Treated lipid regulator” (WARNER-LAMBERT COMPANY, priority 1986, dated 1988).
In brackets after ≈: the same amount, converted by molar mass. Like-named read-outs stand apart in the source and are kept apart here.

Experiment: Concentration (solubility) of gemfibrozil in buffer, from absorbance at 280 nm
Type: physicochemical
Conditions: aqueous buffer, excess gemfibrozil agitated overnight at room temperature, filtered, read-out: concentration of gemfibrozil in each buffer
Protocol: Gemfibrozil solutions were prepared in 0.05 M acetate buffer, pH 4.5, and 0.05 M phosphate buffer, pH 6.0 and 7.5 as follows: • Gemfibrozil solutions were prepared by adding an excess of gemfibrozil to the desired volume of buffer and agitating overnight on a shaker at room temperature. The resulting suspension was vacuum filtered. Gemfibrozil concentration was determined from absorbance at 280 nm, using [formula]
Ultraviolet absorbance measurements were obtained on a Beckman DU-7 spectrophotometer.
The concentration of gemfibrozil in each buffer, determined from absorbance at 280 nm was: pH 4.5, 0.014 mg/ml; pH 6.0, 0.150 mg/ml; pH 7.5, 1.711 mg/ml. Cholestyramine (10 mg) was added to 20 ml of each gemfibrozil solution and the mixtures were agitated for 2 hours. The mixtures were filtered and the concentration of unboud gemfibrozil was determined.

Cc1ccc(C)c(OCCCC(C)(C)C(=O)O)c1 [gemfibrozil]
solubility thermodynamic (0.05 M acetate buffer, pH 4.5): 14 µg/mL (≈ 55.9 µM) | solubility thermodynamic (0.05 M phosphate buffer, pH 6.0): 150 µg/mL (≈ 599 µM) | solubility thermodynamic (0.05 M phosphate buffer, pH 7.5): 1710 µg/mL (≈ 6830 µM)
